Experimental data reported in US6075057A, “Inhibition of carbohydrates metabolism by quinone compounds” (priority 1997, dated 2000).
Like-named read-outs stand apart in the source and are kept apart here.

Columns and labels:
[1] = test system: β-N-acetylglucosaminidase (EC 3.2.1.30); assay: Initial screening assay for enzyme inhibition, β-N-acetylglucosaminidase; type: biochemical, bovine kidney; conditions: 20 μM inhibitor, 2% MeOH
Experimental: (§1) Optically pure enantiomers of avarol were synthetically prepared. A survey of potential inhibitory activity by avarol against twelve glycosidases was performed according to general procedures^15 (see experimental section). The enzymes tested and their biological sources are listed in Table 1 along with any pertinent references found for a given enzyme. In order to determine a working range for enzyme and substrate concentrations in which the rate of product formation was linear and steady-state kinetics were applicable, initial rate studies with varying substrate concentrations were performed in the absence of inhibitor. The Michaelis constants (Km 's) and Vmax values for these enzymes were determined from these plots using standard graphical analysis procedures as described in ref. 17 and are summarized in Table 2.
(§2) Enzymatic Assays. Piperazine-N,N'-bix-(2-ethanesulfonic acid)(PIPES) buffer, enzymes, and substrates were purchased from Sigma and used as received. Buffer solutions and enzymes (desiccated) were stored at 4° C. p-Nitrophenyl glycoside substrates were stored desiccated at -20° C. Enzyme inhibition assays and initial rate studies were carried out with the appropriate p-nitrophenyl glycoside substrates following the general procedure of Kajimoto et al., J. Am. Chem. Soc. 113:6187 (1991) with the exception that amyloglucosidase (EC 3.2,1.3, Asp. niger) was assayed following the method of Saul et al., Arch. Biochem. Biophys. 221:593 (1983). Assays were performed in a Perkin-Elmer Lambda Array 3840 Spectrophotometer using the built-in drive method (resolution=0.25, average=8) in a quartz cuvette (1 cm pathlength). Background absorption spectra were acquired using millipore filtered water as medium. Steady-state kinetics were maintained by adjusting the amount of enzyme used in each assay so that less than 10% of the substrate was converted to product for the duration of the reaction. Reactions were monitored at 400 nm (the absorbance of the p-nitrophenol product, ε=3204.5 M^-1 cm^-1) for a given amount of time and the initial rates were calculated and expressed as μmols p-nitrophenol formed per unit enzyme per second. Absportion readings for control reactions were corrected for the small baseline absorbance at time zero. Small discrepancies between time zero absorbance readings in a given inhibition assay and a time zero reading in a control assay were used to correct the overall absorbance change calculated in the inhibition assay. […]
(§3) Typical assay: A 1.5-mL quartz cuvette was charged with 940 μL of PIPES-NaOAc buffer solution (pH 6.56), 20 μL of inhibitor solution, and 20 μL of enzyme solution. […] The reaction was monitored at 400 nm for 1 min and the absorbance change was used to calculate the initial hydrolysis rate. […]

[2] = test system: β-mannosidase (EC 3.2.1.25); assay: Initial screening assay for enzyme inhibition, β-mannosidase; type: biochemical, snail; conditions: 20 μM inhibitor, 2% MeOH
Experimental: as §1, §2, §3

[3] = biological target: T1, β-galactosidase (EC 3.2.1.23) (Aspergillus niger, UniProt P29853); assay: Initial screening assay for enzyme inhibition, β-galactosidase (Asp. niger); type: biochemical; conditions: 20 μM inhibitor, 2% MeOH, read-out: % Enzyme activity relative to control
T1 construct: purchased Sigma; host or cells: Aspergillus niger
T1 sequence (P29853 20-1006): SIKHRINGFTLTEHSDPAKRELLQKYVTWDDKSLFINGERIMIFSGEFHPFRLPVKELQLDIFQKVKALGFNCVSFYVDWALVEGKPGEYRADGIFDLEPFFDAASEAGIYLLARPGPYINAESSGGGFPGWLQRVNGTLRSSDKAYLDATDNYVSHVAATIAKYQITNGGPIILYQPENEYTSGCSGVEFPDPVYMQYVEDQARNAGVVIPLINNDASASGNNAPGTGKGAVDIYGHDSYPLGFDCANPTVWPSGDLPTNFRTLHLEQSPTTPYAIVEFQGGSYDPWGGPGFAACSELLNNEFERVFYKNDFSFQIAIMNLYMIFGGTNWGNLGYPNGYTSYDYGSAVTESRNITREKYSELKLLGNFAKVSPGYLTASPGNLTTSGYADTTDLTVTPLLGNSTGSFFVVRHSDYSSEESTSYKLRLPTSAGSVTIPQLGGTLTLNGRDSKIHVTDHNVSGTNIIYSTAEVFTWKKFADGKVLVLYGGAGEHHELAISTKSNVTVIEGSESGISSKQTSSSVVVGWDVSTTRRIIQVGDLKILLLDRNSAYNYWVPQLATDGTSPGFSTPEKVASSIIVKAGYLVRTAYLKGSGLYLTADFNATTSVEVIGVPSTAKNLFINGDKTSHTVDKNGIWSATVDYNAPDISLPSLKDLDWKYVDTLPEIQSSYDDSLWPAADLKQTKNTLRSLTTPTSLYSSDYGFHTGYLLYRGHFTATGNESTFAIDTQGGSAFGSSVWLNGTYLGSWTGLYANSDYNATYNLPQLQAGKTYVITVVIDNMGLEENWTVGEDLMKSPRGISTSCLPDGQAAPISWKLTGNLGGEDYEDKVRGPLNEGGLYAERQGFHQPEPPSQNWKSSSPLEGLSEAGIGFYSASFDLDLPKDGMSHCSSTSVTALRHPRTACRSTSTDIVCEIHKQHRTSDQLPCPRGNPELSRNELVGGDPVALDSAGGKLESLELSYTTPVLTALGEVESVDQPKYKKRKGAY
Experimental: as §1, §2, §3

[4] = test system: α-galactosidase (EC 3.2.1.22); assay: Initial screening assay for enzyme inhibition, α-galactosidase (E. coli); type: biochemical, Escherichia coli; conditions: 20 μM inhibitor, 2% MeOH
Experimental: as §1, §2, §3

[5] = biological target: T2, β-xylosidase (EC 3.2.1.37) (Aspergillus niger, UniProt O00089); assay: Initial screening assay for enzyme inhibition, β-xylosidase; type: biochemical; conditions: 20 μM inhibitor, 2% MeOH, read-out: % Enzyme activity relative to control
T2 construct: purchased Sigma; host or cells: Aspergillus niger
T2 sequence (O00089 27-804): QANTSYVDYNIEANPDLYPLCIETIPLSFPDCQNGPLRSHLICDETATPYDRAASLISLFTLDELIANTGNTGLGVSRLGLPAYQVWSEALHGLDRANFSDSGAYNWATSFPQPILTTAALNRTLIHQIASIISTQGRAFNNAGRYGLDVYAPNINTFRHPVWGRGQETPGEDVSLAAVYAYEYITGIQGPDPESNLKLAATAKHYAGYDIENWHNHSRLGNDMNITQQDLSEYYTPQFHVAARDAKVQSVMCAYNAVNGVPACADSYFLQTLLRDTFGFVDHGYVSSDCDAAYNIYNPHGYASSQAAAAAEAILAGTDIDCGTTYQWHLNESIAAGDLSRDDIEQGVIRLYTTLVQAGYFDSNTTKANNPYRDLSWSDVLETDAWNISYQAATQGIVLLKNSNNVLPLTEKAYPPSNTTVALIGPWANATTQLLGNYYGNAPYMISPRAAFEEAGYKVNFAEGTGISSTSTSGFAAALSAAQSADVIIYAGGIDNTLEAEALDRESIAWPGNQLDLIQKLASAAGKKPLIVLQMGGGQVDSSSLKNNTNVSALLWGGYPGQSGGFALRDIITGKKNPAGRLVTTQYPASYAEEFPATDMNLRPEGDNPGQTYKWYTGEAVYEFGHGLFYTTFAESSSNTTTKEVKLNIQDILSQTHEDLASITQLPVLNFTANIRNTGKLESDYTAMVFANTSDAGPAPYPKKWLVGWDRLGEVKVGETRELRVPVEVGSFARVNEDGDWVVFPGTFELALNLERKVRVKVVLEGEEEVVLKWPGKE
Experimental: as §1, §2, §3

[6] = test system: amyloglucosidase (EC 3.2.1.3); assay: Initial screening assay for enzyme inhibition, amyloglucosidase; type: biochemical, Aspergillus niger; conditions: for % Enzyme activity relative to control: amyloglucosidase, 20 μM inhibitor, 2% MeOH
Experimental: as §1
(§4) Enzymatic Assays. Piperazine-N,N'-bix-(2-ethanesulfonic acid)(PIPES) buffer, enzymes, and substrates were purchased from Sigma and used as received. Buffer solutions and enzymes (desiccated) were stored at 4° C. p-Nitrophenyl glycoside substrates were stored desiccated at -20° C. Enzyme inhibition assays and initial rate studies were carried out with the appropriate p-nitrophenyl glycoside substrates following the general procedure of Kajimoto et al., J. Am. Chem. Soc. 113:6187 (1991) with the exception that amyloglucosidase (EC 3.2,1.3, Asp. niger) was assayed following the method of Saul et al., Arch. Biochem. Biophys. 221:593 (1983). Assays were performed in a Perkin-Elmer Lambda Array 3840 Spectrophotometer using the built-in drive method (resolution=0.25, average=8) in a quartz cuvette (1 cm pathlength). Background absorption spectra were acquired using millipore filtered water as medium. Steady-state kinetics were maintained by adjusting the amount of enzyme used in each assay so that less than 10% of the substrate was converted to product for the duration of the reaction. Reactions were monitored at 400 nm (the absorbance of the p-nitrophenol product, ε=3204.5 M^-1 cm^-1) for a given amount of time and the initial rates were calculated and expressed as μmols p-nitrophenol formed per unit enzyme per second. Absportion readings for control reactions were corrected for the small baseline absorbance at time zero. Small discrepancies between time zero absorbance readings in a given inhibition assay and a time zero reading in a control assay were used to correct the overall absorbance change calculated in the inhibition assay. Inhibitors were dissolved in uv-grade absolute methanol.
(§5) Typical assay: A 1.5-mL quartz cuvette was charged with 940 μL of PIPES-NaOAc buffer solution (pH 6.56), 20 μL of inhibitor solution, and 20 μL of enzyme solution. The result was mixed well and then equilibrated at 37° C. for two minutes. 20 μL of the appropriate p-nitrophenyl glycoside solution was then added to initiate the reaction with rapid mixing. The reaction was monitored at 400 nm for 1 min and the absorbance change was used to calculate the initial hydrolysis rate. Lineweaver-Burk plots were constructed by repeating this procedure with varying substrate and inhibitor concentrations.

[7] = biological target: T3, α-L-fucosidase (EC 3.2.1.51) (Bos taurus, UniProt Q2KIM0); assay: Initial screening assay for enzyme inhibition, α-L-fucosidase; type: biochemical, bovine kidney; conditions: read-out: % Enzyme activity relative to control
T3 construct: purchased Sigma; host or cells: bovine kidney
T3 sequence (Q2KIM0 23-468): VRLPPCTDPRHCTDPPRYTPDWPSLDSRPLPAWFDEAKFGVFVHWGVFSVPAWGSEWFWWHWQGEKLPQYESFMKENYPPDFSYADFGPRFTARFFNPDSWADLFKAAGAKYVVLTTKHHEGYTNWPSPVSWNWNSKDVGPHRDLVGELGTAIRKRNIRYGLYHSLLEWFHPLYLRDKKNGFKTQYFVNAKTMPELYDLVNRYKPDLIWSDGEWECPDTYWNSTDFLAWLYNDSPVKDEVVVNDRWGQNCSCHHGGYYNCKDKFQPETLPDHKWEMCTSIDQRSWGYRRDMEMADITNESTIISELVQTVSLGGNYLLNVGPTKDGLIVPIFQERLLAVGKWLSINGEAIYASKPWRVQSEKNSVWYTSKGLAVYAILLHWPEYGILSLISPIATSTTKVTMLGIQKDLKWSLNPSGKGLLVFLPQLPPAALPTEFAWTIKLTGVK
Experimental: as §1, §2, §3

[8] = biological target: T4, α-galactosidase (EC 3.2.1.22) (Coffea arabica, UniProt Q42656); assay: Initial screening assay for enzyme inhibition, α-galactosidase (green coffee beans); type: biochemical; conditions: read-out: % Enzyme activity relative to control
T4 construct: purchased Sigma; host or cells: green coffee beans
T4 sequence (Q42656 16-378): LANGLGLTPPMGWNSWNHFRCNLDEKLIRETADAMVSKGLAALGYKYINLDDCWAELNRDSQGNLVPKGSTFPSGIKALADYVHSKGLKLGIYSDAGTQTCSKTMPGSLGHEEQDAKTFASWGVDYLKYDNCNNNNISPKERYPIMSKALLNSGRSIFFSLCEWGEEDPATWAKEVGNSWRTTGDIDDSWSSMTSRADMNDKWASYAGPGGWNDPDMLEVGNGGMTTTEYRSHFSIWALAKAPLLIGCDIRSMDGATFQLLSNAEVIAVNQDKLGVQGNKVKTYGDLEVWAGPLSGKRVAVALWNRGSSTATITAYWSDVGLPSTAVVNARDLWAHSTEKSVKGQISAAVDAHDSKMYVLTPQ
Experimental: as §1, §2, §3

[9] = biological target: T5, β-galactosidase (EC 3.2.1.23, grade XI) (Aspergillus oryzae, UniProt Q2UCU3); assay: Initial screening assay for enzyme inhibition, β-galactosidase (Asp. oryzae); type: biochemical; conditions: 20 μM inhibitor, 2% MeOH, read-out: % Enzyme activity relative to control
T5 construct: purchased Sigma; host or cells: Aspergillus oryzae
T5 sequence (Q2UCU3 19-1005): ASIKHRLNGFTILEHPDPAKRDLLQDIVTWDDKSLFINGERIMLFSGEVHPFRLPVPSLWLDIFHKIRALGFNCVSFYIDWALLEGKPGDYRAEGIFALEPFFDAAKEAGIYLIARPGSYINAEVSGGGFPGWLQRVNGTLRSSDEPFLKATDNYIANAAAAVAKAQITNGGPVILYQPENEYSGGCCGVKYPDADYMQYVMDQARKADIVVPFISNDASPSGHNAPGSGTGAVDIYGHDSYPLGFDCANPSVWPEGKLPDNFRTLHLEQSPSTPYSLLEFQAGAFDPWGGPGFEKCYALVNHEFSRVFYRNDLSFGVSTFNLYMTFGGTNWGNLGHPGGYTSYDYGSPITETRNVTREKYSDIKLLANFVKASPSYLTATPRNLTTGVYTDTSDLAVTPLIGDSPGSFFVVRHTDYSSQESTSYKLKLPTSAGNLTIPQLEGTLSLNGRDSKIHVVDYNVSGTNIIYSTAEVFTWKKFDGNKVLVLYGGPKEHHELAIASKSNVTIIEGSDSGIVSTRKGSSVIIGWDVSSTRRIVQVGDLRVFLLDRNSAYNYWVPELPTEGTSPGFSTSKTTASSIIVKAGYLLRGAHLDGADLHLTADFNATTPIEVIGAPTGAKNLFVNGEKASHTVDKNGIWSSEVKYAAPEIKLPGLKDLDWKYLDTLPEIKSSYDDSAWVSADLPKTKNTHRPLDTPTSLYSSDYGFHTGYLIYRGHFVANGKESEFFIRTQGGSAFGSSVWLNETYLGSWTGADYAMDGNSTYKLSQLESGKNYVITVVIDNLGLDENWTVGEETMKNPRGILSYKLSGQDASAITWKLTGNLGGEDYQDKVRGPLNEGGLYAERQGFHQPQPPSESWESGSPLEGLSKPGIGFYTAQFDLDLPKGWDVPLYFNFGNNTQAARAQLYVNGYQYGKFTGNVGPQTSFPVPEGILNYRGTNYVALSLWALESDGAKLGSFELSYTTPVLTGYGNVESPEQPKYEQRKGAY
Experimental: as §1, §2, §3

[10] = test system: benzo[a]pyrene monooxygenase; conditions: cited from earlier work
Ames-microsomal assay = conditions: cited from earlier work
[11] = test system: microtubule polymerization; conditions: in vitro and in vivo; cited from earlier work
[12] = test system: L5178Y mouse lymphoma cells; conditions: in vitro and in vivo; cited from earlier work
HTLV-III/LAV = conditions: in vitro; cited from earlier work
[13] = documented; cited from earlier work
[14] = biological target: T6, α-glucosidase (EC 3.2.1.20, type IV) (Saccharomyces cerevisiae, UniProt P53341); assay: Initial screening assay for enzyme inhibition, α-glucosidase; type: biochemical, brewer's yeast
T6 construct: purchased Sigma; host or cells: brewer's yeast
T6 sequence (P53341 whole entry): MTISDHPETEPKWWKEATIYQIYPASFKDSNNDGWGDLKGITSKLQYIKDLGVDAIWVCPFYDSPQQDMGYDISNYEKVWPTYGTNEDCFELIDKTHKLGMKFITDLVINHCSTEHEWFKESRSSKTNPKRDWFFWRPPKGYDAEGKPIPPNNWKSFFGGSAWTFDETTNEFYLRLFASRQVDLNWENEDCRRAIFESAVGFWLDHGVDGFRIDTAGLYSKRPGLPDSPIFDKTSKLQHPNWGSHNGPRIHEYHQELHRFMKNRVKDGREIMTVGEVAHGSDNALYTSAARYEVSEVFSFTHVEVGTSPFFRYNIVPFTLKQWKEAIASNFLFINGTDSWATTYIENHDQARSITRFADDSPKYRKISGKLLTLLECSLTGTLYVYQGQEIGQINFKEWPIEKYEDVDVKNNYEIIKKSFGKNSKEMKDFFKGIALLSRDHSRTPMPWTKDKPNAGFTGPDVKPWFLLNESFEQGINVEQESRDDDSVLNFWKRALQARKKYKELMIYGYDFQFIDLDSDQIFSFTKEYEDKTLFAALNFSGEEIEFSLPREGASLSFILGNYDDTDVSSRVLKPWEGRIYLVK
Experimental: as §1
Initial screening assays with the enantiomeric avarols indicated significant activity by these compounds against only two of the twelve enzymes studies. […] This can occur when the two species compete for the same site or nearby sites on the enzyme. The equilibria that describe competitive inhibition are shown below. [drawing 3]
as §4, §5

SMILES | % Enzyme activity relative to control [1] [%] | % Enzyme activity relative to control [2] [%] | remaining activity at 20 µM [3] [%] | % Enzyme activity relative to control [4] [%] | remaining activity at 20 µM [5] [%] | % Enzyme activity relative to control [6] [%] | remaining activity at 20 µM [7] [%] | remaining activity at 20 µM [8] [%] | remaining activity at 20 µM [9] [%] | antimutagenic activity through inhibition of benzo[a]pyrene monooxygenase [10] | mutagenicity (Ames-microsomal assay) | inhibition of microtubule polymerization [11] | cytotoxicity against L5178Y mouse lymphoma cells [12] | inhibition of replication of HTLV-III/LAV (HTLV-III/LAV) | toxicity [13] | inhibition at 20 µM ([14]; 20 μM) [%] | remaining activity at 20 µM ([14]; α-glucosidase, 20 μM inhibitor, 2% MeOH, read-out: % Enzyme activity relative to control) [%] | inhibition of amyloglucosidase (in words) ([6]; Table 3) | remaining activity at 20 µM ([7]; α-L-fucosidase, 20 μM inhibitor, 2% MeOH) [%] | remaining activity at 20 µM ([8]; α-galactosidase (green coffee beans), 20 μM inhibitor, 2% MeOH) [%]
CC1=CCC[C@H]2[C@](C)(CC/C(C)=C/C[n+]3cn(C)c4ncnc(N)c43)[C@@H](C)CC[C@]12C [C-4-10] | 91 | 109 | 95 | 102 | 102 | 94 | 100 | 96 | 108 |  |  |  |  |  |  |  |  |  |  | 
CC1=CCC[C@H]2[C@](C)(Cc3cc(O)ccc3O)[C@@H](C)CC[C@]12C [avarol] |  |  |  |  |  |  |  |  |  | antimutagenic activity through the inhibition of benzo[a]pyrene monooxygenase | neither direct nor indirect mutagens | inhibition of microtubule polymerization | highly selective cytotoxicity | inhibition of replication | low toxicity |  |  |  |  | 
CC1=CCC[C@H]2[C@](C)(CC3=CC(=O)C=CC3=O)[C@@H](C)CC[C@]12C [avarone, Avarone] |  |  |  |  |  |  |  |  |  | antimutagenic activity through the inhibition of benzo[a]pyrene monooxygenase | neither direct nor indirect mutagens |  |  |  | low toxicity |  |  |  |  | 
C=C1CCC[C@H]2[C@](C)(CC3=C(O)C(=O)C=C(OC)C3=O)[C@@H](C)CC[C@]12C [ilimaquinone, reference compound] | 96 | 108 | 111 | 101 | 105 | 57 |  |  | 98 |  |  |  |  |  |  | 20 | 82 | strong inhibitor of amyloglucosidase | 109 | 97
